Source: ChEMBL document CHEMBL1140830, “Ergoline derivatives as highly potent and selective antagonists at the somatostatin sst 1 receptor” (Bioorg Med Chem Lett, 2008)

Key:
[1] = molecular target: Somatostatin receptor type 1 (Rattus norvegicus, UniProt P28646); test: Displacement of [125I]SRIF14 from sst1 receptor in rat cortex
[2] = molecular target: Somatostatin receptor type 2 (Rattus norvegicus, UniProt P30680); test: Displacement of [125I][Tyr3]octreotide from sst2 receptor in rat cortex
Somatostatin receptor type 2 (Rattus norvegicus, UniProt P30680), sequence (P30680 whole entry): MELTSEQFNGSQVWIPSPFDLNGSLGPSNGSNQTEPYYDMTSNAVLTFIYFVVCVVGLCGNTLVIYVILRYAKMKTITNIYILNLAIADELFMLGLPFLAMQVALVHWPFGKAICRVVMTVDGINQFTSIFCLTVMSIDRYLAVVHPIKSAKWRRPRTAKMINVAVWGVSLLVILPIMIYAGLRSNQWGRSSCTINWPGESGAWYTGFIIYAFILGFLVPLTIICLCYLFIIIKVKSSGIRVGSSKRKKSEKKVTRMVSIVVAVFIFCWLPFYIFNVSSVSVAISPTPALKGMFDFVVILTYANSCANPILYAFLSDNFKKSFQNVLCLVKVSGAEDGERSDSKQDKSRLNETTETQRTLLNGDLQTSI

[3] = molecular target: T1, Somatostatin receptor type 1 (Homo sapiens, UniProt P30872); test: Binding affinity to human recombinant sst1 receptor
T1 sequence (P30872 whole entry): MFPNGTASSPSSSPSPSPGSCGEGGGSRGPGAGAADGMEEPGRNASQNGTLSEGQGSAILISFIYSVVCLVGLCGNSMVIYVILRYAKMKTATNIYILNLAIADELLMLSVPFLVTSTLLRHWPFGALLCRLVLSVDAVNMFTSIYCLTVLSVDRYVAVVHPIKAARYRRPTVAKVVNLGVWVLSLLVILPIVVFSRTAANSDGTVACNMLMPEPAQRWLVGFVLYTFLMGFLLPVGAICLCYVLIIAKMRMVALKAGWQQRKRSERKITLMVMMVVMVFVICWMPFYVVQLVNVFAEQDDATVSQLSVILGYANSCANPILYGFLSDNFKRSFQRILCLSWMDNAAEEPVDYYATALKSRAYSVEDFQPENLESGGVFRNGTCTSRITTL

[4] = molecular target: Somatostatin receptor type 2 (Homo sapiens, UniProt P30874); test: Binding affinity to human recombinant sst2 receptor
Somatostatin receptor type 2 (Homo sapiens, UniProt P30874), sequence (P30874 whole entry): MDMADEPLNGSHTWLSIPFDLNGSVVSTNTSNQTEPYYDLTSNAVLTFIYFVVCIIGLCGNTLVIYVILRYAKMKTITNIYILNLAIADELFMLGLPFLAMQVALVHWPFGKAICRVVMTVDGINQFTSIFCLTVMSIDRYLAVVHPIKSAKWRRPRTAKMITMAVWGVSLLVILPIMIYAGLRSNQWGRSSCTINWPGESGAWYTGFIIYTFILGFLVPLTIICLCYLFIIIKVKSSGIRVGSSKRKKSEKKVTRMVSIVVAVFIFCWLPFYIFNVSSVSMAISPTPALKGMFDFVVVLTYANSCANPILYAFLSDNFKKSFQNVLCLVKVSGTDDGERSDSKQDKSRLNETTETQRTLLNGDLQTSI

[5] = molecular target: Somatostatin receptor type 3 (Homo sapiens, UniProt P32745); test: Binding affinity to human recombinant sst3 receptor
Somatostatin receptor type 3, sequence (P32745 whole entry): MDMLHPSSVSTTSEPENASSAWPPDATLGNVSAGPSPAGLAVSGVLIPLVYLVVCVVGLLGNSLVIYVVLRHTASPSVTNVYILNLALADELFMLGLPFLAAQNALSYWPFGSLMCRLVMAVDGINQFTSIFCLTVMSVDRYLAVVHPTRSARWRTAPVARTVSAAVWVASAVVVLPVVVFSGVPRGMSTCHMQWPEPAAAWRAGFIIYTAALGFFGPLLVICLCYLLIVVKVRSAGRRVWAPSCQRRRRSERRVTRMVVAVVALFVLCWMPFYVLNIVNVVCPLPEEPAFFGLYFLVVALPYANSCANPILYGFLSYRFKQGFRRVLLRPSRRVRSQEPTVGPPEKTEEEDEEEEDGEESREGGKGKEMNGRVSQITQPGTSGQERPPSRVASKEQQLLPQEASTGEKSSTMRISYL

[6] = molecular target: Somatostatin receptor type 4 (Homo sapiens, UniProt P31391); test: Binding affinity to human recombinant sst4 receptor
Somatostatin receptor type 4, sequence (P31391 whole entry): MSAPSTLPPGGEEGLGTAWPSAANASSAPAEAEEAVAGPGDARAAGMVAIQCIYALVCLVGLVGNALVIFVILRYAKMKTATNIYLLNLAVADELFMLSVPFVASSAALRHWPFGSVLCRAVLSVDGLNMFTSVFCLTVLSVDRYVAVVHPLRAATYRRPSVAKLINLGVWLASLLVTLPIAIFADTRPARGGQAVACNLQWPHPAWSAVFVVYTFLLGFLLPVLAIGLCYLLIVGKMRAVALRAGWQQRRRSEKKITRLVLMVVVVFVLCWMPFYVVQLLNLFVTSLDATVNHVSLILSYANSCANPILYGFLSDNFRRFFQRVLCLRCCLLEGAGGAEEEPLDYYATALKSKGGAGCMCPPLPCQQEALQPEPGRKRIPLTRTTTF

[7] = molecular target: Somatostatin receptor type 5 (Homo sapiens, UniProt P35346); test: Binding affinity to human recombinant sst5 receptor
Somatostatin receptor type 5, sequence (P35346 whole entry): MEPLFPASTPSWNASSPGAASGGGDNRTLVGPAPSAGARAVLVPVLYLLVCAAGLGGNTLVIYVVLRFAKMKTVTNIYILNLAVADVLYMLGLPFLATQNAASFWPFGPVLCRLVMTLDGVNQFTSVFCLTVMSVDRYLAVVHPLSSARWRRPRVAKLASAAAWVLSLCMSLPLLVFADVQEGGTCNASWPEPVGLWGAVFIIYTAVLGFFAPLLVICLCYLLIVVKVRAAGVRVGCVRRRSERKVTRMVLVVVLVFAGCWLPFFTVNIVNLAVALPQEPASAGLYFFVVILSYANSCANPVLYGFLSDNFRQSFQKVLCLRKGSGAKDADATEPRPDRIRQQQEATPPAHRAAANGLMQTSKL

D(2) dopamine receptor = D(2) dopamine receptor (Homo sapiens, UniProt P14416); test: Binding affinity to human dopamine D2 receptor
D(2) dopamine receptor, sequence (P14416 whole entry): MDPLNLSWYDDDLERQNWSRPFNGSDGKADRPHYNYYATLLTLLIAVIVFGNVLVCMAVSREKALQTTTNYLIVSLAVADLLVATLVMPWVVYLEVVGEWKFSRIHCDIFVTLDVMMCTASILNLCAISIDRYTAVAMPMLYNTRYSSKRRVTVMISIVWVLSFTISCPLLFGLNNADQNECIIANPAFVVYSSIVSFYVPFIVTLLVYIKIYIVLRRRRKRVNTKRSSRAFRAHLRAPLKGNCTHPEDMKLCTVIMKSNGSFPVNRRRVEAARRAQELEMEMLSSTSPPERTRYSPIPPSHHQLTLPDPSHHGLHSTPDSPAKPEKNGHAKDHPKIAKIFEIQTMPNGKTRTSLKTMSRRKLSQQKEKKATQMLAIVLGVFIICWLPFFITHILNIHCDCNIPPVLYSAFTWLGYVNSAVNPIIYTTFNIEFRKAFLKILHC

D(4) dopamine receptor = molecular target: T2, D(4) dopamine receptor (Homo sapiens, UniProt P21917); test: Binding affinity to human dopamine D4 receptor
T2 sequence (P21917 whole entry): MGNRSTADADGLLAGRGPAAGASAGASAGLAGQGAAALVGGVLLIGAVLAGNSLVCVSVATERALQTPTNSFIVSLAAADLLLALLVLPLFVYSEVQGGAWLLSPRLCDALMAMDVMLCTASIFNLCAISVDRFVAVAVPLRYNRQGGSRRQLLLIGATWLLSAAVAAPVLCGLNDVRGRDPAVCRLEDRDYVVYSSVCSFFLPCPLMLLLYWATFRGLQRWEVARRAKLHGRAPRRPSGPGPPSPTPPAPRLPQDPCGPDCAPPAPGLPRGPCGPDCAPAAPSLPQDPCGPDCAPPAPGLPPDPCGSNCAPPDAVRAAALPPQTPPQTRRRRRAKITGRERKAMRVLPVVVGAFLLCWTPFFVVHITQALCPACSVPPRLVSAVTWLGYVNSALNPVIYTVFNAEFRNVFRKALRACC

[8] = molecular target: T3, 5-hydroxytryptamine receptor 1A (Homo sapiens, UniProt P08908); test: Binding affinity to human 5HT1A receptor
T3 sequence (P08908 whole entry): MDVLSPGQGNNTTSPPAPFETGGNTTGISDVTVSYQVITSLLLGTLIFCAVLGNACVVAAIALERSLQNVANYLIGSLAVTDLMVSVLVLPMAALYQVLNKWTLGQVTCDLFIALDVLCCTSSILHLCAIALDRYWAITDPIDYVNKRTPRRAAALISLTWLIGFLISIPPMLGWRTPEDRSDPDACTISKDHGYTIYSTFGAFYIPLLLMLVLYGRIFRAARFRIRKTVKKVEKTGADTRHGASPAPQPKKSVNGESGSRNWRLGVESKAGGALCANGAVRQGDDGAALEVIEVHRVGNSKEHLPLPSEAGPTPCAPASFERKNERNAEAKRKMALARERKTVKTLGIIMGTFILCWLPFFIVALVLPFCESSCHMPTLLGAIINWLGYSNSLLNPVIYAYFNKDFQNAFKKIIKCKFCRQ

[9] = molecular target: T1, Somatostatin receptor type 1; test: Antagonist activity at human recombinant sst1 receptor in CCl39 cells assessed as SRIF14-induced inhibition of forskolin-stimulated adenylate cyclase activity; type: functional, cell-based
[10] = molecular target: T1, Somatostatin receptor type 1; test: Antagonist activity at human recombinant sst1 receptor assessed as inhibition of SRIF28-induced luciferase activity; type: functional
[11] = Oral bioavailability in rat; type: ADME, organism-based; conditions: in vivo
[12] = Ratio of drug level in brain to plasma in rat at 30 umol/kg after 10 mins; type: ADME; conditions: brain and plasma
[13] = Ratio of drug level in brain to plasma in rat at 30 umol/kg after 24 hrs; type: ADME; conditions: brain and plasma

Somatostatin receptor type 1 (Rattus norvegicus, UniProt P28646), sequence (P28646 whole entry): as the sequence (P30872 whole entry) above, with S8P, S11T, P16S, S20G, G25V, G26C, A32S, A45S, T385A, T389S counted along it

Row | Structure (SMILES) | Kd [1] | Kd [2] | also measured
1 | CN1C[C@H](C(=O)N2CCN(c3ccccn3)CC2)C[C@@H]2c3cccc4[nH]c(Br)c(c34)C[C@H]21 | 4.47 nM | 16600 nM | –
2 | CN1C[C@H](C(=O)N2CCN(c3ccc([N+](=O)[O-])cc3)CC2)C[C@@H]2c3cccc4[nH]c(Cl)c(c34)C[C@H]21 | 1.26 nM | 8910 nM | –
3 | CCn1c(N2CCN(C(=O)[C@@H]3C[C@@H]4c5cccc6[nH]c(Br)c(c56)C[C@H]4N(C)C3)CC2)cccc1=O | 0.282 nM | 26300 nM | –
4 | CC(C)CCN1C[C@H](C(=O)N2CCN(c3ccccn3)CC2)C[C@@H]2c3cccc4[nH]c(Br)c(c34)C[C@H]21 | 1740 nM | – | –
5 | CN1C[C@@H](C(=O)N2CCN(c3ccc4nonc4c3)CC2)C[C@H]2c3cccc4[nH]c(Br)c(c34)C[C@@H]21 | 182 nM | 12600 nM | Kd [3]: 501 nM; Kd [4]: 3890 nM; Kd [5]: 7240 nM; Kd [6]: 5620 nM; Kd [7]: 23400 nM
6 | CN1C[C@H](C(=O)N2CCN(c3ccccn3)CC2)C[C@@H]2c3cccc4[nH]c([S+](C)[O-])c(c34)C[C@H]21 (stereo partly specified) | 2630 nM | 17800 nM | –
7 | CN1C[C@H](C(=O)N2CCN(c3ccc(F)c(F)c3)CC2)C[C@@H]2c3cccc4[nH]c(Cl)c(c34)C[C@H]21 | 0.603 nM | 12900 nM | –
8 | CN1C[C@H](C(=O)N2CCN(c3ccc4nonc4c3)CC2)C[C@@H]2c3cccc4[nH]c(Cl)c(c34)C[C@H]21 | 0.389 nM | 5130 nM | –
9 | CN1C[C@H](C(=O)N2CCN(c3ccc(F)c(F)c3)CC2)C[C@@H]2c3cccc4[nH]c(Br)c(c34)C[C@H]21 | 0.49 nM | 8130 nM | –
10 | CN1C[C@H](C(=O)N2CCN(c3ccc4nsnc4n3)CC2)C[C@@H]2c3cccc4[nH]cc(c34)C[C@H]21 | 1.02 nM | 3020 nM | –
11 | CCN1C[C@H](C(=O)N2CCN(c3ccc(F)c(F)c3)CC2)C[C@@H]2c3cccc4[nH]c(Br)c(c34)C[C@H]21 | 0.977 nM | 13200 nM | –
12 | CN1C[C@H](C(=O)N2CCN(c3ccc([N+](=O)[O-])cc3)CC2)C[C@@H]2c3cccc4[nH]cc(c34)C[C@H]21 | 3.89 nM | 3160 nM | –
13 | CCn1c(N2CCN(C(=O)[C@@H]3C[C@@H]4c5cccc6[nH]c(Cl)c(c56)C[C@H]4N(C)C3)CC2)cccc1=O | 0.38 nM | 12000 nM | –
14 | CN1C[C@H](C(=O)N2CCN(c3ccc4nonc4c3)CC2)C[C@@H]2c3cccc4[nH]c(Br)c(c34)C[C@H]21 | 0.372 nM | 6460 nM | Kd [3]: 1.23 nM; Kd [4]: 6760 nM; Kd [5]: 2340 nM; Kd [6]: 3630 nM; Kd [7]: 6460 nM; Kd (D(2) dopamine receptor): 126 nM; Kd (D(4) dopamine receptor): 77.6 nM; Kd [8]: 28.2 nM; pKb [9]: 7.62; pKb [10]: 9.42; bioavailability [11]: 48%; Kp at 10 min [12]: 0.7; Kp at 24 h [13]: 1.7
15 | O=C([C@H]1CN[C@@H]2Cc3c(Br)[nH]c4cccc(c34)[C@H]2C1)N1CCN(c2ccccn2)CC1 | 170 nM | 7940 nM | –
16 | CN1C[C@H](C(=O)N2CCN(c3ccc(Cl)cc3)CC2)C[C@@H]2c3cccc4[nH]c(Br)c(c34)C[C@H]21 | 5.5 nM | 2000 nM | –
17 | CN1C[C@H](C(=O)N2CCN(c3ccccn3)CC2)C[C@@H]2c3cccc4[nH]cc(c34)C[C@H]21 | 14.1 nM | 17800 nM | –

Row | Structure (SMILES) | Kd [1] | Kd [2] | also measured
18 | CN1C[C@H](C(=O)N2CCN(c3cccc(=O)n3C)CC2)C[C@@H]2c3cccc4[nH]c(Br)c(c34)C[C@H]21 [ERGOLINE] | – | – | pKb [9]: 7.85; pKb [10]: 8.85
19 | CN1C[C@H](C(=O)N2CCN(c3ccccn3)CC2)C[C@@H]2c3cccc4[nH]c(O)c(c34)C[C@H]21 | 240 nM | 8510 nM | –
20 | CN1C[C@H](C(=O)N2CCN(c3ccc4nsnc4n3)CC2)C[C@@H]2c3cccc4[nH]c(Cl)c(c34)C[C@H]21 | 0.24 nM | 3890 nM | –
21 | CN1C[C@@H](C(=O)N2CCN(c3cccc(=O)n3C)CC2)C[C@H]2c3cccc4[nH]c(Br)c(c34)C[C@@H]21 | 417 nM | 20400 nM | Kd [3]: 1950 nM; Kd [4]: 9330 nM; Kd [5]: 5370 nM; Kd [6]: 8130 nM; Kd [7]: 69200 nM
22 | CN1C[C@H](C(=O)N2CCN(c3ccccn3)CC2)C[C@@H]2c3cccc4[nH]c(S(C)(=O)=O)c(c34)C[C@H]21 | 309 nM | 7760 nM | –
23 | CN1C[C@H](C(=O)N2CCN(c3cccc(=O)n3C)CC2)C[C@@H]2c3cccc4[nH]c(Cl)c(c34)C[C@H]21 | 0.389 nM | 49000 nM | –
24 | CN1C[C@H](C(=O)N2CCN(c3cccc(=O)n3C)CC2)C[C@@H]2c3cccc4[nH]cc(c34)C[C@H]21 | 0.759 nM | 7760 nM | –
25 | CN1C[C@H](C(=O)N2CCN(c3ccccn3)CC2)C[C@@H]2c3cccc4[nH]c(Cl)c(c34)C[C@H]21 | 12.9 nM | – | –
26 | CN1C[C@H](C(=O)N2CCN(c3ccc4nsnc4n3)CC2)C[C@@H]2c3cccc4[nH]c(Br)c(c34)C[C@H]21 | 0.372 nM | 4570 nM | –
27 | CN1C[C@H](C(=O)N2CCN(c3ccc([N+](=O)[O-])cc3)CC2)C[C@@H]2c3cccc4[nH]c(Br)c(c34)C[C@H]21 | 1.35 nM | 7240 nM | –
28 | CCCCN1C[C@H](C(=O)N2CCN(c3ccccn3)CC2)C[C@@H]2c3cccc4[nH]c(Br)c(c34)C[C@H]21 | 1150 nM | – | –
29 | CN1C[C@H](C(=O)N2CCN(c3ccc(Cl)cc3)CC2)C[C@@H]2c3cccc4[nH]cc(c34)C[C@H]21 | 19.5 nM | 2190 nM | –
30 | O=C([C@@H]1C[C@@H]2c3cccc4[nH]c(Br)c(c34)C[C@H]2N(CCCO)C1)N1CCN(c2ccccn2)CC1 | 2340 nM | – | –
31 | CN1C[C@H](C(=O)N2CCN(c3ccccn3)CC2)C[C@@H]2c3cccc4[nH]c(I)c(c34)C[C@H]21 | 16.6 nM | 5620 nM | –
32 | CN1C[C@H](C(=O)N2CCN(c3ccc(Cl)cc3)CC2)C[C@@H]2c3cccc4[nH]c(Cl)c(c34)C[C@H]21 | 4.17 nM | 5890 nM | –
33 | CSc1[nH]c2cccc3c2c1C[C@@H]1[C@@H]3C[C@@H](C(=O)N2CCN(c3ccccn3)CC2)CN1C | 2.4 nM | 8510 nM | –
34 | COCCN1C[C@H](C(=O)N2CCN(c3ccccn3)CC2)C[C@@H]2c3cccc4[nH]c(Br)c(c34)C[C@H]21 | 1480 nM | – | –
